{"source": "patent US20140295045A1", "about": "“Pyridine Derivatives With Umami Flavour” (Givaudan S.A., priority 2009, published 2014)", "assay_type_in_all_cases": "in vivo, human", "key": {"trained sensory panel [1]": {"tested_on": "trained sensory panel", "assay": "Testing of compounds: tasting of 0.3% NaCl solution with 2 ppm compound by trained sensory panel", "conditions": "2 ppm compound in a solution of 0.3% NaCl; trained sensory panel of 20 women", "experimental": "Various compounds prepared in the previous examples were tested. Two solutions were prepared: A: a solution of 0.3% NaCl, B: a solution of 0.3% NaCl and 2 ppm compound as per Table 1. The samples were tasted by a trained sensory panel composed of 20 women aged between 30 and 60."}, "bench-top tasting panel [2]": {"tested_on": "bench-top tasting panel", "assay": "Model chicken broth (no MSG added, 0.3% sugar added), blind umami ranking", "conditions": "for Level preferred by panelists in this base: model chicken broth, 0.3% sugar added, % by weight", "experimental": "(§1) The following compositions are made and tested. Using a bench-top tasting panel (consisting of 10 panelists—flavorists, application experts), panelists were asked to record the sensory attribute differences (umami) between the samples. All samples were tasted blind and ranked on umami. Model Chicken Broth—no MSG Added, 0.3% Sugar Added The model chicken broth powder was prepared from 11.9 g chicken fat, 23.81 g salt, 14.29 g sugar, 0.95 g onion powder, 49.01 g chicken powder, 0.04 g turmeric powder. To prepare the model chicken broth 2.0 g of powder was mixed 98.0 g hot water."}, "bench-top tasting panel [3]": {"tested_on": "bench-top tasting panel", "assay": "Commercial organic chicken broth, blind umami ranking", "conditions": "for Level preferred by panelists in this base: commercial organic chicken broth, % by weight", "source_text": "The following compositions are made and tested. Using a bench-top tasting panel (consisting of 10 panelists—flavorists, application experts), panelists were asked to record the sensory attribute differences (umami) between the samples. All samples were tasted blind and ranked on umami. Commercial Organic Chicken Broth (Swanson's Certified Organic Chicken Broth—No added MSG, contains about 0.4% sugars)"}, "bench-top tasting panel [4]": {"tested_on": "bench-top tasting panel", "assay": "Model chicken broth (no MSG added, no sugar added), blind umami ranking", "conditions": "for Level preferred by panelists in this base: model chicken broth, no MSG added, % by weight", "experimental": "as §1, with “no” for “0.3%”"}, "[5]": {"tested_on": "small group of flavourists", "assay": "Tomato soup formulation tasting against reference soup", "conditions": "1.5 ppm compound in tomato soup containing MSG; 4 flavourists", "experimental": "A tomato soup mix was prepared from 9.4 g sodium chloride, 1 g MSG, 0.08 g ribonucleotides (ex yeast), 32 g tomato powder (ex Spreda), 25.1 g glucose, 21 g starch (Ultrasperse™ 5 ex National Starch), 5 g palm fat powder, 3 g yeast powder, 1 g onion powder, 0.15 g carrot powder, 0.05 g ground white pepper, 0.3 g celery extract powder, 0.05 g ground laurel leaf powder, and 1.85 g sucrose. 25 g of the well-mixed ingredients was added to 250 g of boiling water and stirred until completely dissolved, to give a reference soup.\nThe reference soup was compared with a batch of the same soup containing 1.5 ppm of 1-(2-hydroxy-4-isobutoxyphenyl)-3-(pyridine-2-yl)propan-1-one."}, "[6]": {"tested_on": "small group of flavourists", "assay": "Tomato ketchup tasting", "conditions": "2 ppm compound in tomato ketchup; 4 flavourists", "experimental": "A tomato ketchup was prepared from 19% tomato paste (28-30% dry weight), 8% vinegar (15%), 3% sodium chloride, 20% sugar and 50% water.\nTo one-half of the batch was added 2 ppm of 1-(2-hydroxy-4-methoxyphenyl)-3-(pyridin-2-yl)propan-1-one."}, "trained sensory panel [7]": {"tested_on": "trained sensory panel", "assay": "Potato chips tasting", "experimental": "Plain potato chips were prepared.\nOne part was flavoured with 1.2% sodium chloride (sample A),\nOne part was flavoured with 1.2% sodium chloride and 0.3% MSG (sample B),\nOne part was flavoured with 1.2% sodium chloride and 2 ppm of 1-(2-hydroxy-4-methylphenyl)-3-(pyridin-2-yl)propan-1-one (sample C).\n(§2) The samples were tasted by a trained sensory panel composed of 20 women aged between 30 and 60."}, "trained sensory panel [8]": {"tested_on": "trained sensory panel", "assay": "Comparative test with MSG: tasting of 0.3% NaCl / 0.03% MSG solution with compound", "conditions": "5 ppm compound in 0.3% NaCl and 0.03% MSG; Solution A without compound: salty, umami", "experimental": "Two solutions were prepared:\nA: a solution of 0.3% NaCl and 0.03% MSG,\nB: a solution of 0.3% NaCl, 0.03% MSG and 5 ppm of 1-(4-hydroxybenzo[d][1,3]dioxol-5-yl)-3-(pyridin-2-yl)propan-1-one.\nas §2"}, "[9]": {"conditions": "0.002% compound in model chicken broth, sugar added, Control 6th"}, "[10]": {"conditions": "0.002% compound in commercial organic chicken broth, Control 5th"}, "[11]": {"conditions": "0.001% compound in model chicken broth, Control 5th"}}}
{"smiles": "Cc1cc(C)c(O)c(C(=O)CCc2ccccn2)c1", "note": "[1-(2-hydroxy-3,5-dimethylphenyl)3-(pyridine-2-yl)propan-1-one]", "values": [{"measurement": "Taste description", "setting": "trained sensory panel [1]", "value": "Umami"}]}
{"smiles": "Cc1cc(O)c(C(=O)CCc2ccccn2)cc1C", "note": "[1-(2-hydroxy-4,5-dimethylphenyl)-3-(pyridine-2-yl)propan-1-one]", "values": [{"measurement": "Performance when evaluating for umami", "setting": "bench-top tasting panel [2]; 0.002% compound in model chicken broth, sugar added", "value": "performed well"}, {"measurement": "Finishing position in blind ranking of 6 samples on umami", "setting": "bench-top tasting panel [2]; [9]", "value": 2}, {"measurement": "Level preferred by panelists in this base", "setting": "bench-top tasting panel [2]", "value": 0.002, "unit": "%"}, {"measurement": "Taste description", "setting": "trained sensory panel [1]", "value": "Umami, sweet, savoury, salty"}]}
{"smiles": "CC(C)COc1ccc(C(=O)CCc2ccccn2)c(O)c1", "note": "[1-(2-hydroxy-4-isobutoxyphenyl)-3-(pyridine-2-yl)propan-1-one]", "values": [{"measurement": "Finishing position in blind ranking of 6 samples on umami", "setting": "bench-top tasting panel [2]; [9]", "value": 4}, {"measurement": "Level preferred by panelists in this base", "setting": "bench-top tasting panel [2]", "value": 0.002, "unit": "%"}, {"measurement": "Taste description", "setting": "trained sensory panel [1]", "value": "Umami, sweet, salty, bouillon, lingering,"}, {"measurement": "Finishing position in blind ranking of 6 samples on umami", "setting": "bench-top tasting panel [3]; [10]", "value": 3}, {"measurement": "Level preferred by panelists in this base", "setting": "bench-top tasting panel [3]", "value": 0.002, "unit": "%"}, {"measurement": "Finishing position in blind ranking of 6 samples on umami", "setting": "bench-top tasting panel [4]; [11]", "value": 4}, {"measurement": "Level preferred by panelists in this base", "setting": "bench-top tasting panel [4]", "value": 0.001, "unit": "%"}, {"measurement": "Taste of test soup compared with reference soup", "setting": "[5]", "value": "more umami, had a clear lingering effect, was more salty and was more complex"}]}
{"smiles": "COc1ccc(C(=O)CCc2ccccn2)c(O)c1", "note": "[1-(2-hydroxy-4-methoxyphenyl)-3-(pyridin-2-yl)propan-1-one]", "values": [{"measurement": "Finishing position in blind ranking of 6 samples on umami", "setting": "bench-top tasting panel [2]; [9]", "value": 3}, {"measurement": "Level preferred by panelists in this base", "setting": "bench-top tasting panel [2]", "value": 0.002, "unit": "%"}, {"measurement": "Taste description", "setting": "trained sensory panel [1]", "value": "umami, sweet, salty, longlasting"}, {"measurement": "Finishing position in blind ranking of 6 samples on umami", "setting": "bench-top tasting panel [3]; [10]", "value": 4}, {"measurement": "Level preferred by panelists in this base", "setting": "bench-top tasting panel [3]", "value": 0.002, "unit": "%"}, {"measurement": "Taste of test ketchup compared with ketchup without the compound", "setting": "[6]", "value": "clearly more umami, more salty and had a pleasant savoury note"}, {"measurement": "Finishing position in blind ranking of 6 samples on umami", "setting": "bench-top tasting panel [4]; [11]", "value": 2}, {"measurement": "Level preferred by panelists in this base", "setting": "bench-top tasting panel [4]", "value": 0.001, "unit": "%"}]}
{"smiles": "Cc1ccc(C(=O)CCc2ccccn2)c(O)c1", "note": "[1-(2-hydroxy-4-methylphenyl)-3-(pyridin-2-yl)propan-1-one]", "values": [{"measurement": "Finishing position in blind ranking of 6 samples on umami", "setting": "bench-top tasting panel [2]; 0.001% compound in model chicken broth, sugar added, Control 6th", "value": 5}, {"measurement": "Level preferred by panelists in this base", "setting": "bench-top tasting panel [2]", "value": 0.001, "unit": "%"}, {"measurement": "Taste description (sample C)", "setting": "trained sensory panel [7]; potato chips with 1.2% sodium chloride and 2 ppm compound, sample A with salt only: salty", "value": "salty, strong umami, long lasting, savoury, bouillon"}, {"measurement": "Panel preference", "setting": "trained sensory panel [7]; potato chips, sample C (1.2% sodium chloride, 2 ppm compound) versus sample A (salt) and sample B (salt, 0.3% MSG)", "value": "preferred sample C over the other two samples"}, {"measurement": "Taste description", "setting": "trained sensory panel [1]", "value": "Umami, sweet, licorice, savoury"}, {"measurement": "Finishing position in blind ranking of 6 samples on umami", "setting": "bench-top tasting panel [3]; 0.001% compound in commercial organic chicken broth, Control 5th", "value": 2}, {"measurement": "Level preferred by panelists in this base", "setting": "bench-top tasting panel [3]", "value": 0.001, "unit": "%"}, {"measurement": "Finishing position in blind ranking of 6 samples on umami", "setting": "bench-top tasting panel [4]; 0.0005% compound in model chicken broth, Control 5th", "value": 3}, {"measurement": "Level preferred by panelists in this base", "setting": "bench-top tasting panel [4]", "value": 0.0005, "unit": "%"}]}
{"smiles": "Cc1ccc(O)c(C(=O)CCc2ccccn2)c1", "note": "[1-(2-hydroxy-5-methylphenyl)-3-(pyridine-2-yl)propan-1-one]", "values": [{"measurement": "Taste description", "setting": "trained sensory panel [1]", "value": "Umami"}]}
{"smiles": "Cc1cccnc1CCC(=O)c1ccccc1O", "note": "[1-(2-hydroxyphenyl)-3-(3-methylpyridin-2-yl)propan-1-one]", "values": [{"measurement": "Taste description", "setting": "trained sensory panel [1]", "value": "Slightly umami, savoury, meaty"}]}
{"smiles": "Cc1ccc(CCC(=O)c2ccccc2O)nc1", "note": "[1-(2-hydroxyphenyl)-3-(5-methylpyridin-2-yl)propan-1-one]", "values": [{"measurement": "Taste description", "setting": "trained sensory panel [1]", "value": "Slightly umami, some green aftertaste,"}]}
{"smiles": "COc1ccccc1C(=O)CCc1ccccn1", "note": "[1-(2-methoxyphenyl)-3-(pyridin-2-yl)propan-1-one]", "values": [{"measurement": "Taste description", "setting": "trained sensory panel [1]", "value": "Umami, slightly bitter"}]}
{"smiles": "O=C(CCc1ccccn1)c1ccc(OC2CCCC2)cc1O", "note": "[1-(4-(cyclopentyloxy)-2-hydroxyphenyl)-3-(pyridine-2-yl)propan-1-one]", "values": [{"measurement": "Taste description", "setting": "trained sensory panel [1]", "value": "Umami"}]}
{"smiles": "O=C(CCc1ccccn1)c1ccc(OCC2CC2)cc1O", "note": "[1-(4-cyclopropylmethoxy)-2-hydroxyphenyl)-3-(pyridine-2-yl)propan-1-one]", "values": [{"measurement": "Taste description", "setting": "trained sensory panel [1]", "value": "Umami"}]}
{"smiles": "CCOc1ccc(C(=O)CCc2ccccn2)c(O)c1", "note": "[1-(4-ethoxy-2-hydroxyphenyl)-3-(pyridine-2-yl)propan-1-one]", "values": [{"measurement": "Taste description", "setting": "trained sensory panel [1]", "value": "Umami, floral"}]}
{"smiles": "O=C(CCc1ccccn1)c1ccc2c(c1O)OCO2", "note": "[1-(4-hydroxybenzo[d][1,3]dioxol-5-yl)-3-(pyridin-2-yl)propan-1-one]", "values": [{"measurement": "Taste description", "setting": "trained sensory panel [1]", "value": "Clearly umami, slightly yeasty, bouillon"}, {"measurement": "Taste description (Solution B)", "setting": "trained sensory panel [8]", "value": "salty, umami, more bouillon-like, more complex, less sweet"}]}
{"smiles": "CCc1ccc(O)c(C(=O)CCc2ccccn2)c1", "note": "[1-(5-ethyl-2-hydroxyphenyl)-3-(pyridine-2-yl)propan-1-one]", "values": [{"measurement": "Taste description", "setting": "trained sensory panel [1]", "value": "Umami, slightly bitter"}]}
{"smiles": "N[C@@H](CCC(=O)O)C(=O)[O-].[Na+]", "note": "[MSG, monosodium glutamate, reference compound]", "values": [{"measurement": "Finishing position in blind ranking of 6 samples on umami", "setting": "bench-top tasting panel [2]; 0.05% MSG (Reference) in model chicken broth, sugar added", "value": "highest umami"}, {"measurement": "Taste description (sample B)", "setting": "trained sensory panel [7]; potato chips with 1.2% sodium chloride and 0.3% MSG", "value": "salty and umami"}, {"measurement": "Finishing position in blind ranking of 6 samples on umami", "setting": "bench-top tasting panel [3]; 0.05% MSG (Reference) in commercial organic chicken broth", "value": "highest umami"}, {"measurement": "Finishing position in blind ranking of 6 samples on umami", "setting": "bench-top tasting panel [4]; 0.05% MSG (Reference) in model chicken broth", "value": "highest umami"}]}
